From PMC8073686, “Characterization of Subtype Selective Cannabinoid CB2 Receptor Agonists as Potential Anti-Inflammatory Agents” (Pharmaceuticals, 2021)

How the values were obtained:
CB2 = biological target: T1, CB2 (Homo sapiens, UniProt P34972); test: Competitive [3H]CP55,940 radioligand binding, CB2-transfected HEK293T cell membrane; conditions: competition with [3H]CP55,940; mean ± S.D.
T1 construct: expressed in transfected cells; host or cells: HEK293T cells, calcium phosphate transfection, membrane preparation
Description: (§1) To evaluate binding affinity of ABK5 analogs that have a difference in the position of substituents in the N-phenyl ring (Figure 1), we performed competitive radiolabeled ligand binding assays using cell membrane from HEK293T cells transfected with human CB2 receptors. […] ABK5-1, ABK5-2, and ABK5-6 dose-dependently competed with [^3H]CP55,940 and decreased the specific binding of the radiolabeled agonist, which reflects the binding of test compounds to CB2. […] Therefore, ABK5-5 was not considered for further evaluation in this study. […] We also examined CB2 selectivity (versus CB1) of the three compounds by performing similar binding assays using membrane from CB1 expressing HEK293 cells instead of CB2 expressing cells. […] Therefore, ABK5-1 and 5-2 maintained the CB2 subtype selectivity of ABK5.
(§2) In the experiment, 1 × 10^6 HEK293T cells were seeded in a 10-cm cell culture dish and cultured for 24 h. Cells were transfected with CB1 or CB2 using the calcium phosphate method. Approximately one day after transfection, cells were harvested and centrifuged at 4 °C for 5 min at 500× g. The pellet was washed with phosphate buffered saline (PBS) twice and resuspended in PBS containing 1% protease-inhibitor cocktail (Sigma-Aldrich, St. Louis, MO, USA) consisting of 104 mM 4-(2-aminoethyl) benzene sulfonyl fluoride hydrochloride (AEBSF), 80 μM apronitin, 4 mM bestatin, 1.64 mM E-64, 2 mM leupeptin, 1.5 mM pepstatin A. Then the cells were subjected to nitrogen cavitation under 750 psi for 5 min using a Parr cell disruption bomb. The lysate was centrifuged at 500× g for 10 min at 4 °C and the supernatant was spun at 116,000× g for 45 min at 4 °C. The pellet, consisting of the cell membrane expressing CB1 or CB2, was resuspended in TME buffer solution (25 mM Tris-HCl, 5 mM MgCl2, and 1 mM EDTA, pH 7.4) with 7% (w/v) sucrose/TME buffer. The concentration of the membrane protein was determined by the Bradford assay (Bradford, 1976).
Membrane protein was mixed with 1 nM to 10 μM of the test compounds and 1 nM [^3H]CP55,940 (164.9 Ci/mmol; PerkinElmer life Sciences, Waltham, MA, USA), and TME buffer supplemented with 0.2% BSA was used to bring the total volume to 200 μL. [^3H]CP55,940 acts as tracer and agonists that bind the target receptor compete with [^3H]CP55,940. Samples were incubated for 1 h at 30 °C. Ten μM unlabeled CP55,940 was used to determine non-specific binding. […] A Beckman Coulter 6500 liquid scintillation counter was used to measure the radioactivity of the samples.
Results are presented as the mean ± standard deviation (S.D.). […] The Ki values in the ligand binding assay were calculated using the Prism software (GraphPad Software Inc., San Diego, CA, USA), using IC50 values obtained from non-linear regression fitted to the one-site binding model. […]

CB1 receptor = biological target: T2, CB1 receptor (Homo sapiens, UniProt P21554); test: Competitive [3H]CP55,940 radioligand binding, membrane from CB1 expressing HEK293 cells; conditions: for Ki CB1 (CP55,940): competition with [3H]CP55,940, N.B. = no specific binding detected up to 10 μM of test compounds; for CB1 receptor binding: not bound up to: test compound 1 nM to 10 μM
T2 construct: expressed in transfected cells; host or cells: HEK293T cells (called 'HEK293 cells' in Results), calcium phosphate transfection, membrane preparation
Description: as §1, §2
Membrane protein was mixed with 1 nM to 10 μM of the test compounds and 1 nM [^3H]CP55,940 (164.9 Ci/mmol; PerkinElmer life Sciences, Waltham, MA, USA), and TME buffer supplemented with 0.2% BSA was used to bring the total volume to 200 μL. [^3H]CP55,940 acts as tracer and agonists that bind the target receptor compete with [^3H]CP55,940. Samples were incubated for 1 h at 30 °C. Ten μM unlabeled CP55,940 was used to determine non-specific binding. Reactions were stopped by adding 5% BSA/TME buffer (w/v) and samples were filtered through a Brandel cell harvester using Whatman GF/C filter paper. Ultima Gold XR liquid scintillation cocktail (PerkinElmer Life Sciences, Waltham, MA, USA) was then added and vortexed. A Beckman Coulter 6500 liquid scintillation counter was used to measure the radioactivity of the samples.
Results are presented as the mean ± standard deviation (S.D.). The ligand binding assays and the GTPγS binding assays were both carried out in duplicate for three independent experiments. The Ki values in the ligand binding assay were calculated using the Prism software (GraphPad Software Inc., San Diego, CA, USA), using IC50 values obtained from non-linear regression fitted to the one-site binding model. The Cheng-Prusoff equation [48], which is used for calculation of Ki value is shown below. (1) Ki=IC50/1+L/Kd

Jurkat cells = test: CXCL12-mediated Jurkat cell transwell migration assay; type: cell-based, human; conditions: 2 h pretreatment, 2 h migration
Procedure: During inflammation, immune cells are attracted by chemoattractants and migrate to the site of inflammation. Therefore, an inhibitory effect on chemotaxis of immune cells is also a sign of anti-inflammatory effect. We evaluated ABK5-1 and ABK5-2 to determine if these compounds can inhibit CXCL12-mediated Jurkat cell migration. Jurkat cells were incubated with various concentrations of ABK5-1 or 5-2 and loaded on the transwells and allowed to migrate through the transwells to the bottom chamber, which include CXCL12. The cell number in the bottom chamber was determined after 2 h of loading. ABK5-1 inhibited Jurkat cell migration at 10 and 25 μM (Figure 5A). […] Again, to verify these observations were not due to cytotoxicity of test compounds, cell viability was also monitored by incubating cells with compound and CXCL12 without the transwells.
Figure 5 Effect of ABK5-1 and ABK5-2 on CXCL12-mediated Jurkat cell migration. Transwell migration of Jurkat cells treated with (A,B) ABK5-1 or (C,D) ABK5-2. Frames (A,C): Cells were treated with vehicle or various concentrations of test compounds for 2 h and then allowed to migrate through transwells for 2 h. Cell numbers migrated to the lower chamber are indicated as relative to vehicle (DMSO) alone. Results are indicated as the mean ± S.D. of three independent assays performed in triplicate for each concentration. Viability of cells treated with (B) ABK5-1 or (D) ABK5-2 after the migration assay was also examined. Cells were treated exactly the same but without transwells and viability was determined. Results are indicated as the mean ± S.D. of three independent assays performed for each concentration. One-way ANOVA plus Dunnett’s post-hoc test were used for both migration and viability assays. **** p < 0.0001 (versus vehicle control group).
The migration assay was performed as described previously. Briefly, a Transwell Multiple Well Plate with permeable polycarbonate membrane inserts ([…], 24-well, Corning, Corning, NY, USA) were used in migration assays. Jurkat cells were seeded at 2.5 × 10^6 cells/mL in RPMI medium containing 2.5% FBS and treated with DMSO or test compound for 2 h. Then a sample of cells were transferred to the top well. RPMI medium containing 0 to 1000 ng/mL CXCL12 and the appropriate concentration of test compound was loaded to the bottom chamber. Cells were allowed to migrate for 2 h and cells migrated from the top well to the bottom chamber were counted or measured by CCK-8 (Dojindo Molecular Technologies, Inc., Rockville, MD, USA) following the manufacturer instructions. For evaluation of cell viability, the same procedure used for the migration assay was performed without the transwells and the viable cells were counted or measured by CCK-8.

T2 sequence (P21554 whole entry): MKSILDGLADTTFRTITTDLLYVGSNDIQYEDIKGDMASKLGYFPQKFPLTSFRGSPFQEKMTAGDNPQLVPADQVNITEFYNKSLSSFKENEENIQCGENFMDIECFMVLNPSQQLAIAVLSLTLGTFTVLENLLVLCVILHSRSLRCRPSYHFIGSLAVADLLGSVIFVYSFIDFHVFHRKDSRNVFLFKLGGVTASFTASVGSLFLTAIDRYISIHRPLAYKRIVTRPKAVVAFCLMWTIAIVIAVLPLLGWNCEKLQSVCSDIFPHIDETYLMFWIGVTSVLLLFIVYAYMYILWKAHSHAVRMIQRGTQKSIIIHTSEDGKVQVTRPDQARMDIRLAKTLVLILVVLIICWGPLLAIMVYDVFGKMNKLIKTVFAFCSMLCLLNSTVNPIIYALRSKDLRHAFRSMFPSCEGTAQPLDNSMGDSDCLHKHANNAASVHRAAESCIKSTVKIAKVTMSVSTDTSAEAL
T1 sequence (P34972 whole entry): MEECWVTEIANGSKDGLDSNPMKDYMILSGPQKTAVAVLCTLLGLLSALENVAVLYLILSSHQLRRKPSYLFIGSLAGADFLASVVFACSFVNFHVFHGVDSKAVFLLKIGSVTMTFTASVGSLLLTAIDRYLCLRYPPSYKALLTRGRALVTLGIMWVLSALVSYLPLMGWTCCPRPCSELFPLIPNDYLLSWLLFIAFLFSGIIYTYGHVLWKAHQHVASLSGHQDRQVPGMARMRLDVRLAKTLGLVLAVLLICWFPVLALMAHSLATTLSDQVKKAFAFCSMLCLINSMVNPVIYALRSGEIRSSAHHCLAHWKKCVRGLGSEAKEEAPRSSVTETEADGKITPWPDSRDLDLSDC

| SMILES | Ki (CB2) | Ki CB1 (CP55,940) (CB1 receptor) | CB1 receptor binding: not bound up to (CB1 receptor) | decrease of cell migration (Jurkat cells; 10 μM) | decrease of cell migration (Jurkat cells; 25 μM) |
| --- | --- | --- | --- | --- | --- |
| CCOC(=O)c1ccccc1NC(=O)CN(c1c(C)cccc1C)S(=O)(=O)c1ccccc1 [ABK5-2] | 69 ± 19 nM | N.B. ^c | > 10 µM | 32% | 32% |
| CCOC(=O)c1ccccc1NC(=O)CN(c1ccc(C)cc1C)S(=O)(=O)c1ccccc1 [ABK5-1] | 28 ± 5 nM | N.B. ^c | > 10 µM | about 35% | ~43% |
